Laboratory results published in US11415579B2, “Assay for measuring a rate of reaction between a target and a ligand candidate” (Imperial College Innovations Ltd., priority 2016, dated 2022).

Experiments:
[1] = biological target: T1, human cyclin-dependent kinase 2 (Cdk2) (Homo sapiens, UniProt P24941); experiment: Kinetic thiol consumption assay with wild type Cdk2 (C177); assay type: binding; set-up: key to Rate enhancement, Cdk2 WT: k(Cdk2) divided by k(model thiol); Rate constant with Cdk2 (k(Cdk2)): unit not given here; details: for Rate constant with Cdk2 (k(Cdk2)): 500 μM ligand, 5 μM thiol, phosphate buffer pH 8; for Rate enhancement, Cdk2 WT: no additional mutations; for Rate constant with Cdk2 WT: Protein: Cdk2, cysteine position WT, in h^-1; for k(Cdk2)/k(Cdk2_mut) rate enhancement: model thiol Cdk2[C177A, F80C, K278C]; for k(Cdk2)/k(GSH) rate enhancement: model thiol glutathione
T1 construct: poly-histidine; made in house; host or cells: E. coli
Outline: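 His-tagged human Cdk2 from E. coli (sole surface cysteine C177) or a model thiol, each 5 μM in degassed phosphate buffer pH 8 with immobilized TCEP, reacted with acrylamides at room temperature. Fluorescence (ex 380/em 470) normalized to DMSO/thiol control over time; first-order rate constants, Cdk2 rate divided by model-thiol rate.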

[2] = Kinetic thiol consumption assay with model thiol glutathione; assay type: physicochemical; set-up: Rate constant with glutathione (k(GSH)): unit not given here; details: for Rate constant with glutathione (k(GSH)): 500 μM ligand, 5 μM thiol, phosphate buffer pH 8; for Rate constant with Glutathione: Protein: Glutathione, cysteine position NA, in h-1
Outline: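 First, 5 μM glutathione in degassed phosphate buffer (pH 8) receives immobilized TCEP beads (2% v/v). Then acrylamide is added and plates incubate 1 h at room temperature. Finally, fluorescence (380/470 nm) is normalized and fitted to first-order decay for rate constants.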

Cdk2(N272C) (C177A) = biological target: T2, Cdk2(N272C) (C177A) (Homo sapiens, UniProt P24941, C177A/N272C); experiment: Kinetic thiol consumption assay with Cdk2 mutant N272C; assay type: binding; set-up: key to Rate enhancement, Cdk2 N272: rate constant with Cdk2 ÷ rate constant with model thiol (fold); details: for Rate enhancement, Cdk2 N272: Cdk2 N272, additional mutation C177A; for Rate constant with Cdk2 N272C: Protein: Cdk2, cysteine position N272C, additional mutation C177A, in h^-1
T2 construct: poly-histidine; made in house; host or cells: E. coli
Outline: (§1)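 His-tagged single-surface-cysteine Cdk2 mutants (C177A background) from E. coli, 5 μM in degassed phosphate buffer pH 8, pre-treated with immobilized TCEP beads. Fluorescence (ex/em 380/470 nm) read after 1 h at room temperature, normalized to DMSO/thiol-only control; first-order decay fits gave rate constants, divided by model-thiol rate for rate enhancement.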

Cdk2(C177A, F80C) = biological target: T3, Cdk2(C177A, F80C) (Homo sapiens, UniProt P24941, C177A/F80C); experiment: Kinetic thiol consumption assay with Cdk2 mutant F80C, incl. kobs versus concentration (Kd, k2); assay type: binding; set-up: key to Rate enhancement, Cdk2 F80C: Cdk2 rate constant divided by model-thiol rate constant; details: additional mutation C177A; for Rate constant with Cdk2 F80C: Protein: Cdk2, cysteine position F80C, in h^-1
T3 construct: poly-histidine; made in house; host or cells: E. coli
Outline: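 His-tagged Cdk2(C177A/F80C) from E. coli or model thiol, 5 μM in degassed phosphate buffer pH 8 with TCEP beads, reacted with acrylamide ligands; fluorescence (ex/em 380/470 nm) normalized to DMSO control and fitted to first-order decay for kobs. Kd and k2 obtained from hyperbolic fit of kobs versus ligand concentration.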

Cdk2(R122C) (C177A) = biological target: T4, Cdk2(R122C) (C177A) (Homo sapiens, UniProt P24941, C177A/R122C); experiment: Kinetic thiol consumption assay with Cdk2 mutant R122C; assay type: binding; set-up: key to Rate enhancement, Cdk2 R122C: rate constant with Cdk2 ÷ rate constant with model thiol (fold); details: additional mutation C177A; for Rate constant with Cdk2 R122C: Protein: Cdk2, cysteine position R122C, in h-1
T4 construct: poly-histidine; made in house; host or cells: E. coli
Outline: as §1

Cdk2(T182C) (C177A) = biological target: T5, Cdk2(T182C) (C177A) (Homo sapiens, UniProt P24941, C177A/T182C); experiment: Kinetic thiol consumption assay with Cdk2 mutant T182C; assay type: binding; set-up: key to Rate enhancement, Cdk2 T182C: rate constant with Cdk2 ÷ rate constant with model thiol (fold); details: additional mutation C177A; for Rate constant with Cdk2 T182C: Protein: Cdk2, cysteine position T182C, in h^-1
T5 construct: poly-histidine; made in house; host or cells: E. coli
Outline: as §1

Cdk2(S181C) (C177A) = biological target: T6, Cdk2(S181C) (C177A) (Homo sapiens, UniProt P24941, C177A/S181C); experiment: Kinetic thiol consumption assay with Cdk2 mutant S181C; assay type: binding; set-up: key to Rate enhancement, Cdk2 S181C: rate constant with Cdk2 ÷ rate constant with model thiol (fold); details: additional mutation C177A; for Rate constant with Cdk2 S181C: Protein: Cdk2, cysteine position S181C, in h^-1
T6 construct: poly-histidine; made in house; host or cells: E. coli
Outline: as §1

Cdk2[C177A, F80C, K278C] = biological target: T7, Cdk2[C177A, F80C, K278C] (Homo sapiens, UniProt P24941, C177A/F80C/K278C); experiment: Kinetic thiol consumption assay with mutant Cdk2 as model thiol; assay type: binding; set-up: unit not given here; details: 500 μM ligand, 5 μM thiol, phosphate buffer pH 8
T7 construct: poly-histidine; made in house; host or cells: E. coli
Outline: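 Model thiol: His-tagged human Cdk2 C177A/F80C/K278C (two engineered surface cysteines), E. coli-expressed, 5 μM in degassed phosphate buffer pH 8 with immobilized TCEP beads (2% v/v). Fluorescence (ex/em 380/470 nm) followed over time at room temperature, normalized to DMSO/thiol control. First-order decay fit gives rate constants.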

Cdk2(H71C) (C177A) = biological target: T8, Cdk2(H71C) (C177A) (Homo sapiens, UniProt P24941, C177A/H71C); experiment: Kinetic thiol consumption assay with Cdk2 mutant H71C; assay type: binding; set-up: key to Rate enhancement, Cdk2 H71C: rate constant with Cdk2 ÷ rate constant with model thiol (fold); details: additional mutation C177A; for Rate constant with Cdk2 H71C: Protein: Cdk2, cysteine position H71C, in h^-1
T8 construct: poly-histidine; made in house; host or cells: E. coli
Outline: as §1

Cdk2(S276C) (C177A) = biological target: T9, Cdk2(S276C) (C177A) (Homo sapiens, UniProt P24941, C177A/S276C); experiment: Kinetic thiol consumption assay with Cdk2 mutant S276C; assay type: binding; set-up: key to Rate enhancement, Cdk2 S276C: rate constant with Cdk2 ÷ rate constant with model thiol (fold); details: additional mutation C177A; for Rate constant with Cdk2 S276C: Protein: Cdk2, cysteine position S276C, in h^-1
T9 construct: poly-histidine; made in house; host or cells: E. coli
Outline: as §1

Row | SMILES | Rate constant with Cdk2 (k(Cdk2)) [1] | Rate enhancement, Cdk2 WT [1] | Rate constant with Cdk2 WT [1] | k(Cdk2)/k(Cdk2_mut) rate enhancement [1] | k(Cdk2)/k(GSH) rate enhancement [1] | Rate constant with glutathione (k(GSH)) [2] | Rate constant with Glutathione [2] | Rate enhancement, Cdk2 N272 (Cdk2(N272C) (C177A)) | Rate constant with Cdk2 N272C (Cdk2(N272C) (C177A)) | Rate enhancement, Cdk2 F80C (Cdk2(C177A, F80C)) | Rate constant with Cdk2 F80C (Cdk2(C177A, F80C)) | Rate enhancement, Cdk2 R122C (Cdk2(R122C) (C177A)) | Rate constant with Cdk2 R122C (Cdk2(R122C) (C177A)) | Rate enhancement, Cdk2 T182C (Cdk2(T182C) (C177A)) | Rate constant with Cdk2 T182C (Cdk2(T182C) (C177A)) | Rate enhancement, Cdk2 S181C (Cdk2(S181C) (C177A)) | Rate constant with Cdk2 S181C (Cdk2(S181C) (C177A)) | Rate constant with Cdk2[C177A, F80C, K278C] (k(Cdk2_mut)) (Cdk2[C177A, F80C, K278C]) | Rate enhancement, Cdk2 H71C (Cdk2(H71C) (C177A)) | Rate enhancement, Cdk2 S276C (Cdk2(S276C) (C177A)) | further results
1 | C=CC(=O)N1CC(OCc2cccc3ccccc23)C1 [CA-203] | 0.04586 | 3.338 | 0.04586 | 0.5803 | 3.318 | 0.01382 | 0.01374 | 2.758 | 0.0379 | 4.306 | 0.05916 | 3.287 | 0.04516 | 13.92 | 0.1913 | 8.879 | 0.122 | 0.07903 | 3.672 | 3.934 | Rate constant with Cdk2 H71C (Cdk2(H71C) (C177A)): 0.05046; Rate constant with Cdk2 S276C (Cdk2(S276C) (C177A)): 0.05406
2 | C=CC(=O)N1CC2CN(Cc3ccccc3)CC2C1 (stereo not drawn) [CA-207] | 0.00578 | 0.3633 | 0.006162 | 5.219 | 0.5947 | 0.00972 | 0.01696 | 0.3358 | 0.005695 | 0.1388 | 0.002354 | 0.3602 | 0.006109 | 0.921 | 0.01562 | 0.2075 | 0.003519 | 0.00111 | 0 | 0.1692 | Rate constant with Cdk2 S276C (Cdk2(S276C) (C177A)): 0.00287
3 | C=CC(=O)N1CC2CC2C1 (stereo not drawn) [CA-211] | 0.00368 | 0.3928 | 0.003681 | 2.144 | 0.6839 | 0.00538 | 0.00937 | 2.443 | 0.02289 | 0.2496 | 0.002339 | 0.3837 | 0.003595 | 2.18 | 0.02043 | 2.498 | 0.02341 | 0.00172 | 0 | 0.4691 | Rate constant with Cdk2 S276C (Cdk2(S276C) (C177A)): 0.004395
4 | C=CC(=O)Nc1cccc(C(=O)c2ccccc2)c1 [CA-218] | 0.03272 | 2.55 | 0.03272 | 0.2745 | 2.536 | 0.0129 | 0.01283 | 0.3525 | 0.004522 | 11.9 | 0.1527 | 0.6834 | 0.008768 | 9.969 | 0.1279 | 1.116 | 0.01432 | 0.1192 | 0.809 | 2.167 | Rate constant with Cdk2 H71C (Cdk2(H71C) (C177A)): 0.01038; Rate constant with Cdk2 S276C (Cdk2(S276C) (C177A)): 0.0278
5 | C=CC(=O)Nc1ccc(C(=O)c2ccccc2)cc1 [CA-219] | 0.2317 | 3.475 | 0.2317 | 0.3223 | 3.556 | 0.06515 | 0.06668 | 0.8368 | 0.0558 | 17.8 | 1.187 | 0.1738 | 0.01159 | 9.837 | 0.6559 | 0.5975 | 0.03984 | 0.7188 | 0.5597 | 1.204 | Rate constant with Cdk2 H71C (Cdk2(H71C) (C177A)): 0.03732; Rate constant with Cdk2 S276C (Cdk2(S276C) (C177A)): 0.08025
